Laboratory results: article PMC6320863, “Interaction of Chrysin and Its Main Conjugated Metabolites Chrysin-7-Sulfate and Chrysin-7-Glucuronide with Serum Albumin” (International Journal of Molecular Sciences, 2018)

The compounds below were run on T1, ochratoxin A–HSA complex (assay: Fluorescence anisotropy of ochratoxin A–HSA complex). Conditions: 1.0 µmol/L ochratoxin A, 1.5 µmol/L HSA, flavonoid 2.5–30 μM, PBS pH 7.4, λex 393 nm, λem 446 nm.
T1 construct: purchased Sigma-Aldrich
Type: binding, human

Row | Compound | Fluorescence anisotropy of ochratoxin A
1 | O=c1cc(-c2ccccc2)oc2cc(O)cc(O)c12 [Chrysin, 5,7-dihydroxyflavone] | failed to affect
2 | O=C(O)C1OC(Oc2cc(O)c3c(=O)cc(-c4ccccc4)oc3c2)C(O)C(O)C1O (stereo not drawn) [Chrysin-7-glucuronide, chrysin-7-glucuronide] | failed to affect
3 | O=c1cc(-c2ccccc2)oc2cc(OS(=O)(=O)O)cc(O)c12 [Chrysin-7-sulfate, chrysin-7-sulfate] | concentration-dependent decrease
